# Laboratory results: paper PMC6278568, “Discovery of 3-Amino-2-Hydroxypropoxyisoflavone Derivatives as Potential Anti-HCV Agents” (Molecules, 2018)
# Entries after “also recorded” stand apart in the source; their conditions may differ. Where two headings read alike, the source gives them in different places.
# What was measured:
# HCV replication = experiment: Anti-HCV activity in Ava-5 HCV subgenomic replicon cells (firefly luciferase assay); assay type: cell-based, Hepatitis C virus; conditions: Ava-5 cells; for EC50: treated for three days, firefly luciferase assay, read-out: EC50 (concentration resulting in a 50% inhibition in virus production / HCV replication); for anti-HCV activity compared with ribavirin (in words): three days
# Experimental: Ava-5 cells were treated with compounds 6a–i or the positive ribavirin for three days, and then analyzed through firefly luciferase assay. The concentration that inhibited 50% HCV replication (EC50), the concentration that inhibited 50% cell growth (CC50), and the selectivity index (SI: CC50/EC50) of compounds were determined with ribavirin as a positive control.
# (§1) Compounds were dissolved in DMSO at 10 mM and then diluted in culture medium.
# (§2) Ava5 cells, an engineered HCV subgenomic replicon cell line, were cultured in Dulbecco′s modified Eagle′s medium (DMEM) with 10% heat-inactivated fetal bovine serum, 1% antibiotic–antimycotic, and 1% non-essential amino acids. Ava5 cells were maintained in DMEM with 1 mg mL^−1 G418 to maintain the stable expression of replicon.
# ava-5 cells = experiment: Cytotoxicity in Ava-5 cells (XTT method); assay type: cell-based; conditions: Ava-5 cells, 72 h, XTT method; read-out: CC50 (concentration causing a 50% growth inhibition of uninfected ava-5 cells)
# Experimental: as §1, §2
# (§3) For cytotoxicity tests, run in parallel with antiviral assays, plates at an initial density of (5 × 10^3 cells/well) were treated with or without serial dilutions of test compounds. Cell viability was determined after 72 h at 37 °C in a humidified CO2 (5%) atmosphere by the (2,3-bis[2-methyloxy-4-nitro-5-sulfophenyl]-2H-tetrazolium-5-carboxanilide) (XTT) method.
# HCV genotype 1b = conditions: cited from earlier work
# HCV genotype 2a = conditions: cited from earlier work
# HCV = conditions: cited from earlier work
# [1] = Cytotoxicity in Ava-5 cells (XTT method); assay type: cell-based; conditions: human, Ava5 cells (HCV subgenomic replicon cell line); Ava-5 cells, 72 h, XTT method; read-out: CC50 (concentration causing a 50% growth inhibition of uninfected ava-5 cells)
# Experimental: as §1, §2, §3
# HO-1 protein expression = HO-1 protein expression in Ava-5 cells by western blotting; assay type: cell-based; conditions: 10 μM, 3 days, compared with DMSO-treated cells
# Experimental: To determine whether compounds 6b, 6e, 6h and 6i have impact on HO-1 protein expression in Ava-5 cells, we treated these compounds at 10 μM in Ava5 cells.
# Ava5 cells were seeded in 24-well plates at a density of 5 × 10^4 cells per well overnight and treated with indicated reagent at proper concentrations for 3 days. Cells were washed with cold phosphate buffer saline (PBS) and lysed by radioimmunoprecipitation assay (RIPA) lysis buffer (50 mM Tris-HCl, pH 7.5, 150 mM NaCl, 1% Nonidet P-40, 2 mM EDTA, 1 mM EGTA, 1 mM NaVO3, 10 mM NaF, 1 mM DTT, 1 mM PMSF, 25 μg/mL aprotinin, and 25 μg/mL leupeptin) and stored at −20 °C. The protein concentration was determined by the Bradford method. Ten μg protein were separated by 10% SDS-PAGE and transferred onto a polyvinylidene difluorid (PVDF) membrane. The membrane was blocked with 5% non-fat dried milk and incubated with specific antibodies against NS5B (1:5000; Abcam Cambridge, MA, USA), glyceraldehyde-3-phosphate dehydrogenase (GAPDH) and anti-HO-1 (1:3000, Abcam Cambridge, MA, USA). Antibodies were diluted in 5% milk containing Tris-buffered saline (TBS) and 0.5% Tween. The blotting signal was developed using an ECL detection kit (PerkinElmer, Norwalk, CT, USA) and was counted by the software Quantity One (Bio-Rad, Foster, CA, USA).
# Compound 6b, 6e, 6h and 6i induced HO-1 protein expression. Ava-5 cells were treated with compounds at 10 μM for 3 days. The cell lysate was subjected to western blotting with anti-HO-1 and anti-GAPDH antibodies.
# [2] = system: Nrf2 / ARE transactivation; experiment: ARE transactivation, p3xARE-Luc reporter in Ava-5 cells (luciferase assay); assay type: cell-based; conditions: p3xARE-Luc-transfected Ava-5 cells, 1 and 10 μM, 3 days
# Description: Heme oxygenase 1 expression is regulated by the transcription factors Nrf2, Keap1, and Bach1 through the binding of ARE in its promoter region; therefore, we determined whether isoflavones-mediated HO-1 induction was dependent on ARE transactivation by treating p3xARE-Luc-transfected ava-5 cells with increasing concentrations of […] for 3 days.
# Ava5 cells were transfected with the HO-1 promoter-driven luciferase plasmid, pHO-1-Luc, using the T-pro^TM transfection reagent (Ji-Feng Biotechnology Co., Ltd., Taipei, Taiwan) according to the manufacturer′s instructions. The transfected cells were treated with compounds at various concentrations for 3 days. Each transfection complex contains 0.1 μg pSEAP, a secreted alkaline phosphatase (SEAP) expression vector, for normalization luciferase activity serving as a transfection control. The luciferase activity assay was performed using the Bright-Glo Luciferase assay system (Promega) (Madison, WI, USA) according to the manufacturer′s instructions.
# Figure 6 Isoflavones inhibited HCV replication by upregulating Nrf2 expression. Compound 6b, 6e, 6h and 6i stimulated ARE transactivation in Ava-5 cells. The antioxidant response reporter plasmid, p3xARE-Luc, was transfected into Ava-5 cells and then treated with isoflavones (1 and 10 μM) for 3 days. The relative induction of antioxidant activity was determined by luciferase assay. The activity of untreated Ava-5 cells was considered to be 1.
Molecule,"SI (selectivity index, CC50/EC50) (HCV replication)","EC50 (HCV replication; Hepatitis C virus, Ava5, 72 h) [µM]",CC50 at 72 h [1] [µM],melting point [°C],other results
"3-{{3-{[3-(3,4-Dimethoxyphenyl)-4-oxo-4H-chromen-7-yl]oxy}-2-hydroxypropyl}amino}-2-(1H-indol-3-yl)propanoic acid [Compound 6d]",,,,,EC50 (HCV replication): > 20 µM; CC50 (ava-5 cells): 98.8 ± 3.67 µM
"c1ccc(Cn2c(-c3ccccc3)cc3c2CCCC3)cc1 [Compound 1, 1-benzyl-2-phenyl-4,5,6,7-tetrahydro-1H-indole]",,,,,EC50 (HCV genotype 1b): 7.9 µM; EC50 (HCV genotype 2a): 2.6 µM
"CCOC(=O)C1C[C@@H]2/C(=N/Nc3ccccc3)CCCC[C@@H]2N1S(=O)(=O)c1ccc(C)cc1 (stereo partly drawn) [Compound 2, (3aS,8aS,E)-ethyl-4-(2-phenylhydrazono)-1-tosyldecahydro-cyclohepta[b]pyrrole-2-carboxylate]",,,,,EC50 (HCV genotype 1b): 1.8 µM; EC50 (HCV genotype 2a): 4.5 µM
"O=c1c(O)c(-c2ccc(O)c(O)c2)oc2cc(OCc3cccc(Cl)c3)cc(O)c12 [Compound 3, 7-[(3-chlorobenzyl)oxy]-2-(3,4-dihydroxyphenyl)-3,5-dihydroxy-4H-chromen-4-one]",,,,,EC50 (HCV; anti-HCV evaluation of quercetin analogues): 3.8 µM
"COc1ccc(Nc2cc3oc(-c4ccco4)nc3c3ccccc23)cc1 [Compound 4, 2-(furan-2-yl)-N-(4-methoxyphenyl)naphtho[1,2-d]oxazol-5-amine]",,,,,"EC50 (HCV; anti-HCV evaluation of naphtho[1,2-d]oxazole derivatives): 0.63 µM"
"COc1ccc(-c2coc3cc(OCC(O)CNCCc4ccc(O)cc4)ccc3c2=O)cc1OC (stereo not shown) [Compound 6a, 3-(3,4-Dimethoxyphenyl)-7-{2-hydroxy-3-[(4-hydroxyphenethyl)amino]propoxy}-4H-chromen-4-one]",<3.58,> 20,71.7 ± 4.44,117 to 118,
"COc1ccc(-c2coc3cc(OCC(O)CNCCc4c[nH]c5ccccc45)ccc3c2=O)cc1OC (stereo not shown) [Compound 6c, 7-{3-{[2-(1H-Indol-3-yl)ethyl]amino}-2-hydroxypropoxy}-3-(3,4-dimethoxyphenyl)-4H-chromen-4-one]",2.26,16.3 ± 0.95,36.9 ± 0.46,178 to 179,
"CCC(C)(C)NCC(O)COc1ccc2c(=O)c(-c3ccc(OC)c(OC)c3)coc2c1 (stereo not shown) [Compound 6e, 3-(3,4-Dimethoxyphenyl)-7-(2-hydroxy-3-(tert-pentylamino)propoxy)-4H-chromen-4-one]",10.80,8.14 ± 1.74,87.9 ± 2.13,,anti-HCV activity compared with ribavirin (in words) (HCV replication): more active than ribavirin; also recorded: higher anti-HCV effects than ribavirin; HO-1 protein level (HO-1 protein expression): could induce HO-1 protein level; ARE-mediated luciferase activity [2]: increased ARE-mediated luciferase activity
"COc1ccc(-c2coc3cc(OCC(O)CNC(C)(C)c4ccccc4)ccc3c2=O)cc1OC (stereo not shown) [Compound 6f, 3-(3,4-Dimethoxyphenyl)-7-{2-hydroxy-3-[(2-phenylpropan-2-yl)amino]propoxy}-4H-chromen-4-one]",3.30,14.3 ± 0.84,47.2 ± 2.74,131 to 132,
"COc1ccc(-c2coc3cc(OCC(O)CNC(C)(C)N4CCOCC4)ccc3c2=O)cc1OC (stereo not shown) [Compound 6g, 3-(3,4-Dimethoxyphenyl)-7-{2-hydroxy-3-[(2-morpholinopropan-2-yl)amino]propoxy}-4H-chromen-4-one]",<7.17,> 20,144 ± 3.82,,
"COc1ccc(-c2coc3cc(OCC(O)CNC(C)(C)Cc4ccc(F)cc4)ccc3c2=O)cc1OC (stereo not shown) [Compound 6h, 3-(3,4-Dimethoxyphenyl)-7-{3-{[1-(4-fluorophenyl)-2-methylpropan-2-yl]amino}-2-hydroxypropoxy}-4H-chromen-4-one]",11.87,9.35 ± 0.97,111 ± 4.39,151 to 152,anti-HCV activity compared with ribavirin (in words) (HCV replication): more active than ribavirin; also recorded: higher anti-HCV effects than ribavirin; HO-1 protein level (HO-1 protein expression): could induce HO-1 protein level; ARE-mediated luciferase activity [2]: increased ARE-mediated luciferase activity
"COc1ccc(-c2coc3cc(OCC(O)CNCC4(N5CCOCC5)CCCCC4)ccc3c2=O)cc1OC (stereo not shown) [Compound 6i, 3-(3,4-Dimethoxyphenyl)-7-{2-hydroxy-3-{[(1-morpholinocyclohexyl)methyl]amino}propoxy}-4H-chromen-4-one]",14.55,10.7 ± 0.87,156 ± 1.58,67 to 68,anti-HCV activity compared with ribavirin (in words) (HCV replication): more active than ribavirin; also recorded: higher anti-HCV effects than ribavirin; HO-1 protein level (HO-1 protein expression): could induce HO-1 protein level; ARE-mediated luciferase activity [2]: increased ARE-mediated luciferase activity
"NC(=O)c1ncn([C@@H]2O[C@H](CO)[C@@H](O)[C@H]2O)n1 [ribavirin, reference compound]",8.08,13.2 ± 1.63,106 ± 3.69,,
